The text below walks through data of patent publication US4283539A, “Isoquinoline acetic acids” (Pfizer Inc., priority 1979, dated 1981).

This test concerns the target T1, aldose reductase (Bos taurus, UniProt P16116).
T1 construct: partially purified aldose reductase enzyme obtained from calf lens; from tissue; host or cells: calf lens
Description: Inhibition of aldose reductase enzyme activity (procedure of U.S. Pat. No. 3,821,383, based on Hayman et al.). In kind it is biochemical. Particulars: partially purified aldose reductase from calf lens; for inhibition at 100 µM: 10^-4 M; for inhibition at 10 µM: 10^-5 M. From the text: The activity of the compounds of this invention as aldose reductase inhibitors and as agents for the treatment of diabetic cataracts may be determined by standard pharmacological tests. Such tests include, for example, measuring their ability to inhibit the enzyme activity of isolated aldose reductase, following the general procedure described in U.S. Pat. No. 3,821,383 and based on the procedure of Hayman et al., J. Biol. Chem. 240, 877 (1965). Based on the activity of the compounds of this invention in this test, it is expected that the compounds will also show activity as aldose reductase inhibitors when tested at suitable concentrations in other standard pharmaceutical tests, for example those measuring their ability to reduce or inhibit sorbitol accumulation in the sciatic nerve of acutely streptozotocinized (i.e. diabetic) rats; measuring their ability to reverse already-elevated sorbitol level in the sciatic nerve and lens of chronic streptozotocin-induced diabetic rats; measuring their ability to prevent or inhibit galacticol formation in the lens of acutely galatosemic rats; and measuring their ability to delay cataract formation and reduce the severity of lens opacities in chronic galactosemic rats.
The compounds produced in Examples 4, 7, 8, 9 and 10 were tested for their ability to reduce or inhibit aldose reductase enzyme activity, following the procedure described in U.S. Pat. No. 3,821,383 and based on the procedure of Hayman et. al., Journal of Biological Chemistry, 240, 877 (1965). The substrate employed was partially purified aldose reductase enzyme obtained from calf lens. The results obtained with each compound at a concentration of 10^-4 M and 10^-5 M are expressed as percent inhibition of enzyme activity.

The structures appear in SMILES notation. Counter-ions that a name gives are not always drawn.

The inhibition is the percentage by which the read-out fell short of the control. Read a low inhibition as a weak effect. With `Cc1c(CC(=O)O)c2ccccc2c(=O)n1OCc1ccc(Cl)c(Cl)c1` [Example 4, 2-(3,4-Dichlorobenzyloxy)-1,2-dihydro-3-methyl-1-oxo-4-isoquinoline Acetic Acid], the inhibition at 100 µM is 90% and the inhibition at 10 µM worked out at 77%. For the compound `Cc1c(CC(=O)O)c2ccccc2c(=O)n1Cc1ccc(Cl)c(Cl)c1` [Example 7, 2-(3,4-Dichlorobenzyl)-1,2-dihydro-3-methyl-1-oxo-4-isoquinoline Acetic Acid], 100 µM produced 27% inhibition.

`Cc1nc(OCc2ccc(Cl)c(Cl)c2)c2ccccc2c1CC(=O)O` [Example 8, 1-(3,4-Dichlorobenzyloxy)-3-methyl-4-isoquinoline Acetic Acid] returned an inhibition at 100 µM of 83% and an inhibition at 10 µM of 95%.

As to `Cc1nc(Oc2ccc(Cl)cc2)c2ccccc2c1CC(=O)O` [Example 9, 1-(4-Chlorophenoxy)-3-methyl-4-isoquinoline Acetic Acid], at 100 µM the inhibition was 95% and 10 µM produced 91% inhibition. `Cc1nc(N(C)Cc2ccc(Cl)cc2)c2ccccc2c1CC(=O)O` [Example 10, 1-(N-4-Chlorobenzyl-N-methyl-amino)-3-methyl-4-isoquinoline Acetic Acid Hydrochloride]: the inhibition at 100 µM stood at 99% and the inhibition at 10 µM amounted to 97%.
